# Results reported in US12215133B2 (BrightGene Bio-Medical Technology Co., Ltd., priority 2021, dated 2025).
# Marks after values point to notes of the source that are not given here.
# How the values were obtained:
# GIP receptor = molecular target: T1, GIP receptor (Homo sapiens, UniProt P48546); experiment: cAMP experiment, GIP receptor (CHO host cell line); format: cell-based; conditions: CHO host cells
# T1 construct: expressed in transfected cells; host or cells: CHO cell line
# T1 sequence (P48546 22-466): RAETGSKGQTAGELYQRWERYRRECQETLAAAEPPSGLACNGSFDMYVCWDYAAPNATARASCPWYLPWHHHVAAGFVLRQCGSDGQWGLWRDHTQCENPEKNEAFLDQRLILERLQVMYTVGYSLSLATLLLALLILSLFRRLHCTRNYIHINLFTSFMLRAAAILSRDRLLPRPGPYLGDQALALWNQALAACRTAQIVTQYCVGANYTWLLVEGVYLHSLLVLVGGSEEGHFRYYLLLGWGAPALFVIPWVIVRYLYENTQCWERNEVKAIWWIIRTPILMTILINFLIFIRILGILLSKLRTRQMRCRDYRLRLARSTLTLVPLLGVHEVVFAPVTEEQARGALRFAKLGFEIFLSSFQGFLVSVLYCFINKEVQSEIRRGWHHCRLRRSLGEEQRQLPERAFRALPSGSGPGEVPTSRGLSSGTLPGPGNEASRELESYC
# db/db mice = experiment: Inhibitory effect of BG128 on hyperglycemia in db/db mice (Experimental Example 3); format: in vivo; conditions: for Insulin in serum: 3 days after the last administration; for Insulin in serum / Fasting blood glucose: n = 11; for non-fasting blood glucose after the first administration: FIG. 11
# [1] = 0.05 mg/kg s.c. once every three days, anticoagulated whole blood, end of experiment, Mean ± SEM
compound,measurement,setting,value
CNC(CCCCNC(=O)COCCOCCOCCNC(=O)COCCOCCOCCNC(=O)CCC(NC(=O)CC(=O)O)C(=O)O)C(N)=O (stereo not shown) [BG128],EC50,GIP receptor,0.279 nM
same,Insulin in serum,"db/db mice; 0.05 mg/kg s.c. once every three days, Mean ± SD",37649.0 ± 3597.0ª nIU/mL
same,Fasting blood glucose,"db/db mice; 0.05 mg/kg s.c. once every three days, Day 0 (before administration, baseline), Mean ± SD",23.18 ± 1.15 mmol/L
same,Fasting blood glucose,"db/db mice; 0.05 mg/kg s.c. once every three days, Day 7, Mean ± SD",21.68 ± 1.77^b mmol/L
same,Fasting blood glucose,"db/db mice; 0.05 mg/kg s.c. once every three days, Day 13, Mean ± SD",21.68 ± 1.11 mmol/L
same,Fasting blood glucose,"db/db mice; 0.05 mg/kg s.c. once every three days, Day 19, Mean ± SD",24.30 ± 1.41^c mmol/L
same,Fasting blood glucose,"db/db mice; 0.05 mg/kg s.c. once every three days, Day 25, Mean ± SD",18.32 ± 1.37^c mmol/L
same,Fasting blood glucose,"db/db mice; 0.05 mg/kg s.c. once every three days, Day 31, Mean ± SD",20.15 ± 1.91^c mmol/L
same,HbA1C,db/db mice; [1],5.18 ± 0.23
same,HbA1C%,db/db mice; [1],4.07 ± 0.13ª %
same,Insulin in serum,"db/db mice; 0.15 mg/kg s.c. once every three days, Mean ± SD",30897.0 ± 5634.0^a nIU/mL
same,Fasting blood glucose,"db/db mice; 0.15 mg/kg s.c. once every three days, Day 0 (before administration, baseline), Mean ± SD",23.17 ± 1.19 mmol/L
same,Fasting blood glucose,"db/db mice; 0.15 mg/kg s.c. once every three days, Day 7, Mean ± SD",22.78 ± 1.11^a mmol/L
same,Fasting blood glucose,"db/db mice; 0.15 mg/kg s.c. once every three days, Day 13, Mean ± SD",21.58 ± 1.13 mmol/L
same,Fasting blood glucose,"db/db mice; 0.15 mg/kg s.c. once every three days, Day 19, Mean ± SD",26.14 ± 1.05^b mmol/L
same,Fasting blood glucose,"db/db mice; 0.15 mg/kg s.c. once every three days, Day 25, Mean ± SD",15.70 ± 1.50^c mmol/L
same,Fasting blood glucose,"db/db mice; 0.15 mg/kg s.c. once every three days, Day 31, Mean ± SD",20.38 ± 1.87^c mmol/L
same,HbA1C%,"db/db mice; 0.15 mg/kg s.c. once every three days, anticoagulated whole blood, end of experiment, Mean ± SEM",4.04 ± 0.14ª %
same,Insulin in serum,"db/db mice; 0.5 mg/kg s.c. once every three days, Mean ± SD",32774.0 ± 6290.0^a nIU/mL
same,Fasting blood glucose,"db/db mice; 0.5 mg/kg s.c. once every three days, Day 0 (before administration, baseline), Mean ± SD",22.99 ± 1.35 mmol/L
same,Fasting blood glucose,"db/db mice; 0.5 mg/kg s.c. once every three days, Day 7, Mean ± SD",15.54 ± 1.49^c mmol/L
same,Fasting blood glucose,"db/db mice; 0.5 mg/kg s.c. once every three days, Day 13, Mean ± SD",16.79 ± 1.20^c mmol/L
same,Fasting blood glucose,"db/db mice; 0.5 mg/kg s.c. once every three days, Day 19, Mean ± SD",13.26 ± 1.91^c mmol/L
same,Fasting blood glucose,"db/db mice; 0.5 mg/kg s.c. once every three days, Day 25, Mean ± SD",11.85 ± 1.74^c mmol/L
same,Fasting blood glucose,"db/db mice; 0.5 mg/kg s.c. once every three days, Day 31, Mean ± SD",16.41 ± 1.68^c mmol/L
same,non-fasting blood glucose after the first administration,"db/db mice; BG128 dose groups 0.05, 0.15, 0.5 mg/kg s.c., 0-72 h",decreased rapidly within 24 h after the first administration
same,body weight during the first administration,"db/db mice; Tirzepatide 0.15 mg/kg, BG128 0.05, 0.15, 0.5 mg/kg s.c., FIG. 8 and 9",positively correlated with the administration dose
same,food intake after the first administration vs db/db-ND group,"db/db mice; Tirzepatide 0.15 mg/kg, BG128 0.05, 0.15, 0.5 mg/kg s.c., FIG. 10",positively correlated with the administration dose
same,animal body weight loss rate compared with Tirzepatide,"db/db mice; equal dose (0.15 mg/kg s.c.), FIG. 8 and 9",better than that of Tirzepatide administration group
same,decrease in food intake compared with Tirzepatide,"db/db mice; equal dose (0.15 mg/kg s.c.), FIG. 10",significantly greater than that of the positive control group Tirzepatide
same,non-fasting blood glucose after the first administration,"db/db mice; high-dose group 0.5 mg/kg s.c., 24 h-72 h after administration",maintained in a relatively low range
